Test results as given in patent US10556875B2, “Bis-diazeniumdiolate compounds as anti-cancer agents” (ARIZONA BOARD OF REGENTS ON BEHALF OF ARIZONA STATE …, priority 2017, dated 2020).
Like-named read-outs stand apart in the source and are kept apart here.

Columns and labels:
Type in all cases: cell-based, human
[1] = tested on: A549 lung cancer cells; assay: In vitro cellular proliferation assay (MTT/MTS)
Method: (§1) In Vitro Cellular Proliferation Assay: BT474 breast cancer cells (ATCC® HTB-20, overexpression of HER2), A549 lung cancer cells, leukemia cell CCRF-CEM (ATCC# CCL-119), and leukemia Jurkat cell were cultured at 37° C. in a 5% CO2 atmosphere and grown in Gibco® RPMI 1640 medium supplemented with 10% fetal bovine serum (FBS) and 1% antibiotic-[…] mix antibiotic supplement before use.
(§2) Exponentially growing cells were harvested and plated in 96-well plates at a concentration of 1×10^4 cells/well. After incubation at 37° C. for 24 h, the cells were treated with analogues of JS-K at different concentrations for an additional 24, 48 or 72 h. Then 20 μL of MTT (5 mg/mL) or MTS was added to each well and the plates were incubated at 37° C. for 4 h. The supernatant was discarded for MTT assay, and 100 μL of DMSO was added to each well. For the MTS assay, this step is not necessary. The absorbance was recorded at 490 nm after 15 min. Inhibition of cell growth was obtained by the following formula: Inhibition of cell growth (%)=(ODnegative control−ODtreatment)×100%/(ODnegative control−ODbackground). Data are reported as the mean of three independent experiments, each run in quintuplicate.

[2] = tested on: leukemia cell CCRF-CEM; assay: In vitro cellular proliferation assay (MTT/MTS)
Method: as §1, §2

[3] = tested on: leukemia Jurkat E6-1 cells; assay: In vitro cellular proliferation assay (MTT/MTS)
Method: as §1, §2

[4] = tested on: BT474 breast cancer cells; assay: In vitro cellular proliferation assay (MTT/MTS)
Method: as §1, §2

[5] = tested on: BT474, MDA-MB-231, A549, CCRF-CEM and Jurkat cancer cells; assay: In vitro cellular proliferation assay, comparison across the tested cancer cell panel
Method: as §1, §2

[6] = tested on: breast cancer cell MDA-MB-231; assay: In vitro cellular proliferation assay (MTT/MTS)
[7] = Homo sapiens, A549, read-out: Half maximal inhibitory concentration (IC50)
[8] = Homo sapiens, CCRF-CEM, read-out: Half maximal inhibitory concentration (IC50)
[9] = Homo sapiens, Jurkat E6.1, read-out: Half maximal inhibitory concentration (IC50)
[10] = Homo sapiens, BT-474, read-out: Half maximal inhibitory concentration (IC50)
[11] = Homo sapiens, MDA-MB-231, read-out: Half maximal inhibitory concentration (IC50)

IC50 ([1]; A549 cells, read-out: Half maximal inhibitory concentration (IC50)) [µM]	IC50 ([2]; leukemia CEM cells, read-out: IC50 against leukemia CEM cells) [µM]	IC50 ([3]; Jurkat E6-1 cells, read-out: Half maximal inhibitory concentration (IC50)) [µM]	IC50 ([4]; BT474 cells, read-out: Half maximal inhibitory concentration (IC50)) [µM]	IC50 ([6]; MDA-MB-231 cells, read-out: Half maximal inhibitory concentration (IC50)) [µM]	Structure (SMILES)	IC50 [1, 7] [µM]	IC50 [2, 8] [µM]	IC50 ([2]; Homo sapiens, CCRF-CEM, read-out: IC50 against leukemia CEM cells) [µM]	IC50 [3, 9] [µM]	IC50 [4, 10] [µM]	specific activity to human leukemia cells ([5]; among the compounds of the series)	selectivity to leukemia cells versus breast cancer and lung cancer cells ([5]; compared with JS-K)	IC50 fold higher (less cell killing potency) than for JS-K ([5]; other four cancer cells (other than CEM), relative to JS-K)	IC50 [6, 11] [µM]	inhibitory effect on cellular proliferation ([5]; all tested cancer cells: BT474, MDA-MB-231, A549, CCRF-CEM, Jurkat)
					O=[N+]([O-])c1ccc(O/N=[N+](\[O-])N2CCC(CN3CCN(/N=[N+](\[O-])Oc4ccc([N+](=O)[O-])cc4[N+](=O)[O-])CC3)CC2)c([N+](=O)[O-])c1 [Compound 3, (E)-1-(2,4-dinitrophenoxy)-2-(4-((1-((Z)-2-(2,4-dinitrophenoxy)-1-oxidodiazen-1-yl)piperidin-4-yl)methyl)piperazin-1-yl)diazene 1-oxide]	11.3 ± 1.61	0.46 ± 0.02	0.46	1.94 ± 0.08	7.06 ± 1.03	highest specific activity	higher selectivity than JS-K	1.9-5.4 fold	17.9 ± 1.01	
					O=[N+]([O-])c1ccc(O/N=[N+](\[O-])N2CCN(CC3CCC(CN4CCN(/[N+]([O-])=N/Oc5ccc([N+](=O)[O-])cc5[N+](=O)[O-])CC4)CC3)CC2)c([N+](=O)[O-])c1 (stereo not drawn) [Compound 4, (1Z,1′Z)-1,1′-((cyclohexane-1,4-diylbis(methylene))bis(piperazine-4,1-diyl))bis(2-(2,4-dinitrophenoxy)diazene 1-oxide)]	18.5 ± 0.15	2.54 ± 0.14		3.01 ± 0.22	6.01 ± 0.21				16.4 ± 0.53	
2.11 ± 0.15	0.29	0.52 ± 0.02	3.66 ± 0.41	7.93 ± 0.47	CCOC(=O)N1CCN(/[N+]([O-])=N/Oc2ccc([N+](=O)[O-])cc2[N+](=O)[O-])CC1 [JS-K, O^2-(2,4-dinitrophenyl) 1-[(4-ethoxycarbonyl)piperazin-1-yl]diazen-1-ium-1,2-diolate, reference compound]										high inhibitory effect
					O=[N+]([O-])c1ccc(O/N=[N+](\[O-])N2CCN(CCCN3CCN(/[N+]([O-])=N/Oc4ccc([N+](=O)[O-])cc4[N+](=O)[O-])CC3)CC2)c([N+](=O)[O-])c1 [Compound 2, (1Z,1′Z)-1,1′-(propane-1,3-diylbis(piperazine-4,1-diyl))bis(2-(2,4-dinitrophenoxy)diazene 1-oxide)]	18.8 ± 0.21	3.73 ± 0.15		4.06 ± 0.18	10.8 ± 0.08				> 20	
					O=[N+]([O-])c1ccc(O/N=[N+](\[O-])N2CCN(CCN3CCN(/[N+]([O-])=N/Oc4ccc([N+](=O)[O-])cc4[N+](=O)[O-])CC3)CC2)c([N+](=O)[O-])c1 [Compound 1, (1Z,1′Z)-1,1′-(ethane-1,2-diylbis(piperazine-4,1-diyl))bis(2-(2,4-dinitrophenoxy)diazene 1-oxide)]	17.1 ± 1.02	2.64 ± 0.37		3.71 ± 0.04	10.7 ± 0.97				17.6 ± 0.08	
